# Molecular target: Cyclin-A1/Cyclin-A2/Cyclin-dependent kinase 2 (Homo sapiens, UniProt P24941)
# Assay: Inhibition of recombinant Cdk2/cyclinA
smiles,measurement,value
Cc1csc(-c2ccc(CNc3nc(N[C@H]4CC[C@H](N)CC4)nc4c3ncn4C(C)C)s2)n1,IC50,0.1 nM
CC(C)n1cnc2c(NCc3ccc(-c4cccs4)nc3)nc(N[C@H]3CC[C@H](N)CC3)nc21,IC50,0.9 nM
